Test results taken from patent US12649745B2, “Amino-pyrimidine cyclo-amides” (Hoffmann-La Roche Inc., priority 2020, dated 2026).
pIC50: −log10 of the molar value.

Molecular target: T1, human Autotaxin (ATX) (Homo sapiens, UniProt Q13822)
T1 construct: generate a full length human ENPP2 ORF with or without a 3′-6×His tag; 6xHis (C); made in house; host or cells: FreeStyle 293-F cells (transient transfection), purified from culture supernatant
Assay: Human ATX enzyme inhibition assay (LPC substrate, choline oxidase/HRP/Amplex Red coupled format)
Assay type: biochemical
Conditions: recombinant hATX 1 nM, 18:1 LPC 30 μM, fluorescence at 90 mins minus 5 mins
Description: Human ATX Enzyme Inhibition Assay
To identify inhibitors of the human Autotaxin (ATX) enzyme an in-vitro biochemical profiling assay has been developed using lysophosphatidylcholine (LPC) as substrate and recombinant enzyme. ATX activity is assayed via a coupled enzyme format where choline produced from LPC hydrolysis is converted to hydrogen peroxide by choline oxidase (CO). Hydrogen peroxide is in turn used as a co-substrate by horseradish peroxidase (HRP) to oxidise Amplex Red® and generate the red-fluorescent product, Resorufin.
50 mM Tris-HCl (pH 8.0); 120 mM NaCl; 20 mM CaCl2; 5 mM KCl; 1 mM MgCl2; 0.01% Triton X-100, sterile-filtered and stored at 4° C.
50 mM Tris-HCl (pH 8.0); 150 mM NaCl
human Autotaxin (hATX): 0.97 mg/ml (9.718 μM) Molecular weight 99817. Working solution of 1.5 μM used in this assay.
100 mM 18:1 LPC dissolved in reagent dilution-buffer.
500 U/ml Choline Oxidase in reagent dilution buffer.
2540 U/ml Horseradish Peroxidase, in reagent dilution buffer (10.95 mg/ml).
20 mM Amplex Red (10-Acetyl-3,7-dihydroxy-phenoxazin) in DMSO.
Black, 384-well plate, black with clear bottom, non-treated surface.
Test compounds are received pre-diluted in DMSO as an 11-point concentration-response (0.5 mM highest concentration; 1 in 3.162 dilution). Test compounds are pre-diluted 1:1 (10 μL compound+10 μL assay buffer) in a 96-well conical bottomed plate prior to use.
ATX is diluted to 2.2 nM in assay buffer. Choline oxidase and horseradish peroxidase are diluted to 7.3 U/ml and 14.7 U/ml, respectively. 18:1 LPC and Amplex Red® are diluted to 110 μM and 183.3 μM, respectively (solution protected from light). 2.2 μL of compound pre-dilution or 50% DMSO is added to the reaction plate followed by 25 μL of ATX or assay buffer (negative control). Assay plate is mixed and incubated at room temperature for 10 mins. 15 μL of choline oxidase/horseradish peroxidase is then added. To initiate the reaction 15 μL of LPC 18:1/Amplex Red is added. Assay plate is mixed and incubated at room temperature in the dark. Fluorescence is measured at 5 mins (for background subtraction) and 90 mins.
Final Assay Concentrations:
Horse Radish Peroxidase: 4 U/ml
Fluorescence at 5-minutes is subtracted from the 90-minute end point data and normalized with respect to the positive control. IC50 values are calculated.
Results in the enzymatic ATX inhibition assay are provided for compounds of formula (I).

SMILES	pIC50
N#Cc1cc(Cl)cc2c1C[C@@H](Nc1ncc3c(n1)CN(CC1CC1)C3=O)C2 [Example 18, (S)-6-chloro-2-((6-(cyclopropylmethyl)-5-oxo-6,7-dihydro-5H-pyrrolo[3,4-d]pyrimidin-2-yl)amino)-2,3-dihydro-1H-indene-4-carbonitrile]	8.52
CC(C)(O)CN1Cc2nc(N[C@H]3Cc4cc(Cl)cc(C#N)c4C3)ncc2C1=O [Example 21, (S)-6-chloro-2-((6-(2-hydroxy-2-methylpropyl)-5-oxo-6,7-dihydro-5H-pyrrolo[3,4-d]pyrimidin-2-yl)amino)-2,3-dihydro-1H-indene-4-carbonitrile]	8.30
CC1(CN2Cc3nc(N[C@H]4Cc5cc(Cl)cc(C#N)c5C4)ncc3C2=O)COC1 [Example 28, (S)-6-chloro-2-((6-((3-methyloxetan-3-yl)methyl)-5-oxo-6,7-dihydro-5H-pyrrolo[3,4-d]pyrimidin-2-yl)amino)-2,3-dihydro-1H-indene-4-carbonitrile]	8.22
N#Cc1cc(Cl)cc2c1C[C@@H](Nc1ncc3c(n1)CCNC3=O)C2 [Example 27, (S)-6-chloro-2-((5-oxo-5,6,7,8-tetrahydropyrido[4,3-d]pyrimidin-2-yl)amino)-2,3-dihydro-1H-indene-4-carbonitrile]	8.52
N#Cc1cc(Cl)cc2c1C[C@@H](Nc1ncc3c(n1)CN(C1CCOC1)C3=O)C2 (mixture of isomers) [Example 11, (S,S) and (S,R)-6-chloro-2-((5-oxo-6-(tetrahydrofuran-3-yl)-6,7-dihydro-5H-pyrrolo[3,4-d]pyrimidin-2-yl)amino)-2,3-dihydro-1H-indene-4-carbonitrile]	8.22
N#Cc1cc(Cl)cc2c1C[C@@H](Nc1ncc3c(n1)CN(CCF)C3=O)C2 [Example 22, (S)-6-chloro-2-((6-(2-fluoroethyl)-5-oxo-6,7-dihydro-5H-pyrrolo[3,4-d]pyrimidin-2-yl)amino)-2,3-dihydro-1H-indene-4-carbonitrile]	8.70
N#Cc1cc(Cl)cc2c1C[C@@H](Nc1ncc3c(n1)CN(C1COC1)C3=O)C2 [Example 16, (S)-6-chloro-2-((6-(oxetan-3-yl)-5-oxo-6,7-dihydro-5H-pyrrolo[3,4-d]pyrimidin-2-yl)amino)-2,3-dihydro-1H-indene-4-carbonitrile]	8.40
CCN1CCc2nc(N[C@H]3Cc4cc(Cl)cc(C#N)c4C3)ncc2C1=O [Example 34, (S)-6-chloro-2-((6-ethyl-5-oxo-5,6,7,8-tetrahydropyrido[4,3-d]pyrimidin-2-yl)amino)-2,3-dihydro-1H-indene-4-carbonitrile]	8.52
CCN1Cc2nc(N[C@H]3Cc4cc(Cl)cc(C#N)c4C3)ncc2C1=O [Example 33, (S)-6-chloro-2-((6-ethyl-5-oxo-6,7-dihydro-5H-pyrrolo[3,4-d]pyrimidin-2-yl)amino)-2,3-dihydro-1H-indene-4-carbonitrile]	8.70
O=C1c2cnc(NC3Cc4ccc(Cl)cc4C3)nc2CN1C1CC(F)(F)C1 (centres unmarked) [Example 5, 2-((5-chloro-2,3-dihydro-1H-inden-2-yl)amino)-6-(3,3-difluorocyclobutyl)-6,7-dihydro-5H-pyrrolo[3,4-d]pyrimidin-5-one]	7.31
COCCN1Cc2nc(N[C@H]3Cc4cc(Cl)cc(C#N)c4C3)ncc2C1=O [Example 20, (S)-6-chloro-2-((6-(2-methoxyethyl)-5-oxo-6,7-dihydro-5H-pyrrolo[3,4-d]pyrimidin-2-yl)amino)-2,3-dihydro-1H-indene-4-carbonitrile]	8.30
CC(C)N1Cc2nc(N[C@H]3Cc4cc(Cl)cc(C#N)c4C3)ncc2C1=O [Example 12, (S)-6-chloro-2-((6-isopropyl-5-oxo-6,7-dihydro-5H-pyrrolo[3,4-d]pyrimidin-2-yl)amino)-2,3-dihydro-1H-indene-4-carbonitrile]	8.52

Now from value to compound:

pIC50	SMILES
8.52	CN1Cc2nc(N[C@H]3Cc4cc(Cl)cc(C#N)c4C3)ncc2C1=O [Example 23, (S)-6-chloro-2-((6-methyl-5-oxo-6,7-dihydro-5H-pyrrolo[3,4-d]pyrimidin-2-yl)amino)-2,3-dihydro-1H-indene-4-carbonitrile]
7.38	O=C1c2cnc(NC3Cc4ccc(Cl)cc4C3)nc2CN1C1CC2(C1)CC(F)(F)C2 (centres unmarked) [Example 4, 2-((5-chloro-2,3-dihydro-1H-inden-2-yl)amino)-6-(6,6-difluorospiro[3.3]heptan-2-yl)-6,7-dihydro-5H-pyrrolo[3,4-d]pyrimidin-5-one]
8.40	N#Cc1cc(Cl)cc2c1C[C@@H](Nc1ncc3c(n1)CN(C(CF)CF)C3=O)C2 [Example 26, (S)-6-chloro-2-((6-(1,3-difluoropropan-2-yl)-5-oxo-6,7-dihydro-5H-pyrrolo[3,4-d]pyrimidin-2-yl)amino)-2,3-dihydro-1H-indene-4-carbonitrile]
8.05	N#Cc1cc(Cl)cc2c1C[C@@H](Nc1ncc3c(n1)CN(CC1(O)CC1)C3=O)C2 [Example 24, (S)-6-chloro-2-((6-((1-hydroxycyclopropyl)methyl)-5-oxo-6,7-dihydro-5H-pyrrolo[3,4-d]pyrimidin-2-yl)amino)-2,3-dihydro-1H-indene-4-carbonitrile]
8.30	N#Cc1cc(Cl)cc2c1C[C@@H](Nc1ncc3c(n1)CN([C@H]1C[C@H](O)C1)C3=O)C2 [Example 19]
8.40	CC1(N2Cc3nc(N[C@H]4Cc5cc(Cl)cc(C#N)c5C4)ncc3C2=O)CC(F)(F)C1 [Example 6, (S)-6-chloro-2-((6-(3,3-difluoro-1-methylcyclobutyl)-5-oxo-6,7-dihydro-5H-pyrrolo[3,4-d]pyrimidin-2-yl)amino)-2,3-dihydro-1H-indene-4-carbonitrile]
8.52	N#Cc1cc(Cl)cc2c1C[C@@H](Nc1ncc3c(n1)CN(CC1COC1)C3=O)C2 [Example 14, (S)-6-chloro-2-((6-(oxetan-3-ylmethyl)-5-oxo-6,7-dihydro-5H-pyrrolo[3,4-d]pyrimidin-2-yl)amino)-2,3-dihydro-1H-indene-4-carbonitrile]
8.52	N#Cc1cc(Cl)cc2c1C[C@@H](Nc1ncc3c(n1)CN(C1CC(F)(F)C1)C3=O)C2 [Example 8, (S)-6-chloro-2-((6-(3,3-difluorocyclobutyl)-5-oxo-6,7-dihydro-5H-pyrrolo[3,4-d]pyrimidin-2-yl)amino)-2,3-dihydro-1H-indene-4-carbonitrile]
8.52	N#Cc1cc(Cl)cc2c1C[C@@H](Nc1ncc3c(n1)CN(C1CC4(C1)CC(F)(F)C4)C3=O)C2 [Example 7, (S)-6-chloro-2-((6-(6,6-difluorospiro[3.3]heptan-2-yl)-5-oxo-6,7-dihydro-5H-pyrrolo[3,4-d]pyrimidin-2-yl)amino)-2,3-dihydro-1H-indene-4-carbonitrile]
8.70	N#Cc1cc(Cl)cc2c1C[C@@H](Nc1ncc3c(n1)CN(C1CC1)C3=O)C2 [Example 13, (S)-6-chloro-2-((6-cyclopropyl-5-oxo-6,7-dihydro-5H-pyrrolo[3,4-d]pyrimidin-2-yl)amino)-2,3-dihydro-1H-indene-4-carbonitrile]
8.52	N#Cc1cc(Cl)cc2c1C[C@@H](Nc1ncc3c(n1)CCN(CC(F)(F)F)C3=O)C2 [Example 36, (S)-6-chloro-2-((5-oxo-6-(2,2,2-trifluoroethyl)-5,6,7,8-tetrahydropyrido[4,3-d]pyrimidin-2-yl)amino)-2,3-dihydro-1H-indene-4-carbonitrile]
8.22	CC(=O)N1CCC(N2Cc3nc(N[C@H]4Cc5cc(Cl)cc(C#N)c5C4)ncc3C2=O)CC1 [Example 25, (S)-2-((6-(1-acetylpiperidin-4-yl)-5-oxo-6,7-dihydro-5H-pyrrolo[3,4-d]pyrimidin-2-yl)amino)-6-chloro-2,3-dihydro-1H-indene-4-carbonitrile]
6.82	O=C1c2cnc(NC3Cc4ccc(Cl)cc4C3)nc2CN1C1COC1 (centres unmarked) [Example 1, 2-((5-chloro-2,3-dihydro-1H-inden-2-yl)amino)-6-(oxetan-3-yl)-6,7-dihydro-5H-pyrrolo[3,4-d]pyrimidin-5-one]
8.70	CC1(N2Cc3nc(N[C@H]4Cc5cc(Cl)cc(C#N)c5C4)ncc3C2=O)CC1 [Example 15, (S)-6-chloro-2-((6-(1-methylcyclopropyl)-5-oxo-6,7-dihydro-5H-pyrrolo[3,4-d]pyrimidin-2-yl)amino)-2,3-dihydro-1H-indene-4-carbonitrile]
